Laboratory results: publication PMC9481151, “Discovery of new symmetrical and asymmetrical nitrile-containing 1,4-dihydropyridine derivatives as dual kinases and P-glycoprotein inhibitors: synthesis, in vitro assays, and in silico studies” (Journal of Enzyme Inhibition and Medicinal Chemistry, 2022)

Experiments:
[1] = test system: Escherichia coli; experiment: Agar well diffusion method; conditions: relative to ciprofloxacin
[2] = test system: HOP-62; experiment: NCI single dose (10 µM) SRB screen; format: cell-based, human; conditions: non-small cell lung cancer, 48 h
[3] = test system: SK-MEL-5; experiment: NCI single dose (10 µM) SRB screen; format: cell-based, human; conditions: melanoma, 48 h
[4] = test system: HS578T; experiment: NCI single dose (10 µM) SRB screen; format: cell-based, human; conditions: breast cancer, 48 h
[5] = test system: TK-10; experiment: NCI single dose (10 µM) SRB screen; format: cell-based, human; conditions: renal cancer, 48 h
[6] = test system: HCT-15; experiment: NCI single dose (10 µM) SRB screen; format: cell-based, human; conditions: colon cancer, 48 h
[7] = test system: HCT-116; experiment: NCI single dose (10 µM) SRB screen; format: cell-based, human; conditions: colon cancer, 48 h
[8] = test system: HT29; experiment: NCI single dose (10 µM) SRB screen; format: cell-based, human; conditions: colon cancer, 48 h
[9] = test system: EKVX; experiment: NCI single dose (10 µM) SRB screen; format: cell-based, human; conditions: non-small cell lung cancer, 48 h
[10] = test system: DU-145; experiment: NCI single dose (10 µM) SRB screen; format: cell-based, human; conditions: prostate cancer, 48 h
[11] = test system: LOX IMVI; experiment: NCI single dose (10 µM) SRB screen; format: cell-based, human; conditions: melanoma, 48 h
[12] = test system: SK-OV-3; experiment: NCI single dose (10 µM) SRB screen; format: cell-based, human; conditions: ovarian cancer, 48 h
[13] = test system: NCI-H226; experiment: NCI single dose (10 µM) SRB screen; format: cell-based, human; conditions: non-small cell lung cancer, 48 h
[14] = test system: RPMI-8226; experiment: NCI single dose (10 µM) SRB screen; format: cell-based, human; conditions: leukaemia, 48 h
[15] = test system: U251; experiment: NCI single dose (10 µM) SRB screen; format: cell-based, human; conditions: CNS cancer, 48 h
[16] = test system: MDA-MB-231; experiment: NCI single dose (10 µM) SRB screen; format: cell-based, human; conditions: breast cancer, 48 h
[17] = test system: A549/ATCC; experiment: NCI single dose (10 µM) SRB screen; format: cell-based, human; conditions: non-small cell lung cancer, 48 h
[18] = test system: MCF7; experiment: NCI single dose (10 µM) SRB screen; format: cell-based, human; conditions: breast cancer, 48 h
[19] = test system: MDA-MB-435; experiment: NCI single dose (10 µM) SRB screen; format: cell-based, human; conditions: melanoma, 48 h
[20] = test system: NCI 60 cancer cell lines; experiment: NCI single dose (10 µM) SRB screen, mean over panel; format: cell-based, human; conditions: mean over 60 cell lines, 48 h
[21] = test system: KM12; experiment: NCI single dose (10 µM) SRB screen; format: cell-based, human; conditions: colon cancer, 48 h
[22] = test system: A498; experiment: NCI single dose (10 µM) SRB screen; format: cell-based, human; conditions: renal cancer, 48 h
[23] = test system: SW-620; experiment: NCI single dose (10 µM) SRB screen; format: cell-based, human; conditions: colon cancer, 48 h
[24] = test system: NCI-H23; experiment: NCI single dose (10 µM) SRB screen; format: cell-based, human; conditions: non-small cell lung cancer, 48 h
[25] = test system: NCI-H522; experiment: NCI single dose (10 µM) SRB screen; format: cell-based, human; conditions: non-small cell lung cancer, 48 h
[26] = test system: NCI/ADR-RES; experiment: NCI single dose (10 µM) SRB screen; format: cell-based, human; conditions: ovarian cancer, 48 h
[27] = test system: Bacillus subtilis; experiment: Agar well diffusion method
[28] = test system: HCC-2998; experiment: NCI single dose (10 µM) SRB screen; format: cell-based, human; conditions: colon cancer, 48 h
[29] = test system: NCI-H322M; experiment: NCI single dose (10 µM) SRB screen; format: cell-based; conditions: non-small cell lung cancer, 48 h
[30] = test system: ACHN; experiment: NCI single dose (10 µM) SRB screen; format: cell-based, human; conditions: renal cancer, 48 h
[31] = test system: SNB-75; experiment: NCI single dose (10 µM) SRB screen; format: cell-based, human; conditions: CNS cancer, 48 h
[32] = test system: SR; experiment: NCI single dose (10 µM) SRB screen; format: cell-based, human; conditions: leukaemia, 48 h
[33] = test system: HL-60(TB); experiment: NCI single dose (10 µM) SRB screen; format: cell-based, human; conditions: leukaemia, 48 h
[34] = test system: CCRF-CEM; experiment: NCI single dose (10 µM) SRB screen; format: cell-based, human; conditions: leukaemia, 48 h
[35] = test system: Staphylococcus aureus; experiment: Agar well diffusion method
[36] = test system: COLO 205; experiment: NCI single dose (10 µM) SRB screen; format: cell-based, human; conditions: colon cancer, 48 h
[37] = test system: PC-3; experiment: NCI single dose (10 µM) SRB screen; format: cell-based, human; conditions: prostate cancer, 48 h
[38] = test system: M14; experiment: NCI single dose (10 µM) SRB screen; format: cell-based, human; conditions: melanoma, 48 h
[39] = test system: UACC-62; experiment: NCI single dose (10 µM) SRB screen; format: cell-based, human; conditions: melanoma, 48 h
[40] = test system: MDA-MB-468; experiment: NCI single dose (10 µM) SRB screen; format: cell-based, human; conditions: breast cancer, 48 h
[41] = test system: UACC-257; experiment: NCI single dose (10 µM) SRB screen; format: cell-based, human; conditions: melanoma, 48 h
[42] = test system: Candida albicans; experiment: Agar well diffusion method
[43] = test system: UO-31; experiment: NCI single dose (10 µM) SRB screen; format: cell-based, human; conditions: renal cancer, 48 h
[44] = test system: MOLT-4; experiment: NCI single dose (10 µM) SRB screen; format: cell-based, human; conditions: leukaemia, 48 h
[45] = test system: CAKI-1; experiment: NCI single dose (10 µM) SRB screen; format: cell-based, human; conditions: renal cancer, 48 h
[46] = test system: SF-268; experiment: NCI single dose (10 µM) SRB screen; format: cell-based, human; conditions: CNS cancer, 48 h
[47] = test system: SF-295; experiment: NCI single dose (10 µM) SRB screen; format: cell-based, human; conditions: CNS cancer, 48 h
[48] = test system: MALME-3M; experiment: NCI single dose (10 µM) SRB screen; format: cell-based, human; conditions: melanoma, 48 h
[49] = test system: SK-MEL-2; experiment: NCI single dose (10 µM) SRB screen; format: cell-based, human; conditions: melanoma, 48 h
[50] = test system: BT-549; experiment: NCI single dose (10 µM) SRB screen; format: cell-based, human; conditions: breast cancer, 48 h
[51] = test system: SNB-19; experiment: NCI single dose (10 µM) SRB screen; format: cell-based, human; conditions: CNS cancer, 48 h

CC1=C(C(=O)OC(C)C)C(c2cccc(C#N)c2)C(C(=O)OC(C)C)=C(C)N1 [Compound 1c, Diisopropyl 4-(3-cyanophenyl)-2,6-dimethyl-1,4-dihydropyridine-3,5-dicarboxylate]
% activity index, E. coli [1]: – (Values below 25 are of limited value and not shown as they refer either to inactive or non-diffusing compounds) | GI% HOP-62 [2]: – (Only GI% ≥ 10 are shown) | GI% SK-MEL-5 [3]: – (Only GI% ≥ 10 are shown) | GI% HS578T [4]: – (Only GI% ≥ 10 are shown) | GI% TK-10 [5]: – (Only GI% ≥ 10 are shown) | GI% HCT-15 [6]: 10% | GI% HCT-116 [7]: 13% | GI% HT29 [8]: – (Only GI% ≥ 10 are shown) | GI% EKVX [9]: – (Only GI% ≥ 10 are shown) | GI% DU-145 [10]: – (Only GI% ≥ 10 are shown) | GI% LOX IMVI [11]: – (Only GI% ≥ 10 are shown) | GI% SK-OV-3 [12]: – (Only GI% ≥ 10 are shown) | GI% NCI-H226 [13]: – (Only GI% ≥ 10 are shown) | GI% RPMI-8226 [14]: 17% | GI% U251 [15]: – (Only GI% ≥ 10 are shown) | GI% MDA-MB-231 [16]: – (Only GI% ≥ 10 are shown) | GI% A549/ATCC [17]: 11% | GI% MCF7 [18]: 11% | GI% MDA-MB-435 [19]: – (Only GI% ≥ 10 are shown) | Mean GI% [20]: 6% | GI% KM12 [21]: – (Only GI% ≥ 10 are shown) | GI% A498 [22]: – (Only GI% ≥ 10 are shown) | GI% SW-620 [23]: – (Only GI% ≥ 10 are shown) | GI% NCI-H23 [24]: – (Only GI% ≥ 10 are shown) | GI% NCI-H522 [25]: 11% | GI% NCI/ADR-RES [26]: – (Only GI% ≥ 10 are shown) | zone of inhibition at 1000 µg/mL ([27]; Bacillus subtilis, 24 h, read-out: Diameter of inhibition zone, B. subtilis): 6 mm | % activity index, B. subtilis ([27]; relative to ciprofloxacin): 26.1% | GI% HCC-2998 [28]: – (Only GI% ≥ 10 are shown) | GI% NCI-H322M [29]: – (Only GI% ≥ 10 are shown) | GI% ACHN [30]: – (Only GI% ≥ 10 are shown) | GI% SNB-75 [31]: 20% | GI% SR [32]: 18% | GI% HL-60(TB) [33]: 29% | GI% CCRF-CEM [34]: – (Only GI% ≥ 10 are shown) | zone of inhibition at 1000 µg/mL ([35]; Staphylococcus aureus, 24 h, read-out: Diameter of inhibition zone, S. aureus): 11 mm | % activity index, S. aureus ([35]; relative to ciprofloxacin): 45.8% | GI% COLO 205 [36]: – (Only GI% ≥ 10 are shown) | GI% PC-3 [37]: 29% | GI% M14 [38]: – (Only GI% ≥ 10 are shown) | GI% UACC-62 [39]: 14% | GI% MDA-MB-468 [40]: 22% | GI% UACC-257 [41]: – (Only GI% ≥ 10 are shown) | zone of inhibition at 1000 µg/mL ([42]; Candida albicans, 24 h, read-out: Diameter of inhibition zone, C. albicans): 10 mm | % activity index, C. albicans ([42]; relative to clotrimazole): 37% | GI% UO-31 [43]: – (Only GI% ≥ 10 are shown) | GI% MOLT-4 [44]: 17% | GI% CAKI-1 [45]: 19% | GI% SF-268 [46]: – (Only GI% ≥ 10 are shown) | GI% SF-295 [47]: – (Only GI% ≥ 10 are shown) | GI% MALME-3M [48]: – (Only GI% ≥ 10 are shown) | GI% SK-MEL-2 [49]: – (Only GI% ≥ 10 are shown) | GI% BT-549 [50]: – (Only GI% ≥ 10 are shown) | GI% SNB-19 [51]: – (Only GI% ≥ 10 are shown)
